Results on three molecules are retold here after patent US20180327354A1, “Unnatural Analogues of Calcitriol and Uses Thereof” (Vidasym, Inc., priority 2009, published 2018).

Entries after “also recorded” stand apart in the source; their conditions may differ. Where two headings read alike, the source gives them in different places.

One data set deals with normal mice. Nature of the data set: Hypercalcemic side effect profile and serum PTH in normal mice. Format: in vivo, Male C57/BL mice. The settings on record: for dose at which compound starts to raise serum Ca: i.p. dosing once daily for 3 consecutive days. The method, then:
The normal mice model is a convenient and quick way to assess the hypercalcemic side effect profile of compounds. At the same time, data on serum PTH can be collected.
Male C57/BL mice at 18-20 g are dosed with the test agent at 100 al/mouse (concentrations as indicated) i.p. once daily for 3 consecutive days or at 10 ml/kg, p.o. gavage, once daily for 5 days. The animals were harvested 24 h after the last dose by anesthetization with ketamine/xylazine. Blood was collected from the aorta. Serum total calcium was measured using the QuantiChrom Calcium Assay kit and/or the Roche Hitachi 912 Chemistry Analyzer. Serum PTH was measured using a PTH Immunoassay. Vehicle control was 100 l/mouse of 5% EtOH/95% propylene glycol for i.p. dosing or 10 ml/kg of 20% Hydroxypropyl-β-Cyclodextrin for p.o. gavage dosing.
For serum chemistry data, group mean±SEM are presented. Differences between vehicle and compound-treated groups are assessed using a one-way ANOVA followed by a Dunnett's post-hoc test. FIGS. 3A and 3B show the results from a typical p.o. gavage dosing study (n=4-9 per group).

The next data set has as its system CYP24A1. Nature of the data set: CYP24A1 expression induction in primary culture of human coronary artery smooth muscle cells. Format: cell-based. The settings on record: HCASMC. The method, then:
Compounds were tested in a primary culture of HCASMC to assess their potency in inducing the expression of CYP24A1 and VDR.
Primary culture of HCASMC was grown in smooth muscle growth medium SmGM-2 containing 5.5 mM glucose, 5% FBS, 50 μg/ml gentamicin, 50 ng/ml amphotericin-B, 5 μg/ml insulin, 2 ng/ml hFGF, and 0.5 ng/ml hEGF at 37° C. in a humidified 5% CO2-95% air. Cells were grown to >80% confluence and used within five passages.
Cells were plated into 6 well plates and treated with test agent for 24 h. Cells were lysed with the addition of 1 mL of Trizol and RNA prepared according to the manufacturer's protocol.
Real-time reverse transcription-PCR was performed with the forward and reverse PCR primers and […] of the TAQMAN™ probe specifically designed for CYP24A1 or VDR. (A TAQMAN™ probe is comprised of a fluorophore covalently attached to the 5′-end of the oligonucleotide probe and a quencher at the 3′-end.) After the data acquisition, the CYP24A1 or VDR mRNA expression level was normalized to the GAPDH mRNA level. […] Group mean±STDEV (standard deviation) are presented.

The test system of data set [1] is 5/6 nephrectomized uremic rats. Briefly: Serum creatinine, BUN, PTH, phosphorus and calcium in 5/6 nephrectomized uremic rats. It is filed as in vivo, Sprague Dawley rats. The settings on record: for effect on BUN / effect on serum PTH / effect on serum calcium / effect on serum creatinine / effect on serum phosphorus: 5/6 NX rats. The method, then: The nephrectomy of male, Sprague Dawley, 5/6 rats was performed using a standard two-step surgical ablation procedure (starting body weight ˜200 gm) as previously described (Slatopolsky et al., 1998, Am J Kidney Dis 32: S40-47). Sham operated rats were used as control. The rats were on a diet containing 1.13% calcium and 0.94% phosphorus. Six weeks after the second surgery, treatment was initiated with vehicle (5% ethanol+95% propylene glycol, 0.4 ml/kg) or test agent by intraperitoneal injection (i.p.), 3 times/week, for two weeks (n≥12 per group). Twenty-four hours after the last dose, retro-orbital venous blood was collected for measurement of PTH and other endpoints.
Calcium, serum phosphorus, creatinine, and blood urea nitrogen (BUN) concentrations were measured by a chemistry analyzer (LX-20, Beckman). Serum PTH was measured using a rat intact parathyroid hormone (i-PTH) ELISA kit. For serum chemistry data, group mean±SEM are presented. A t-test was used to analyze differences between baseline 6W (6 weeks after surgery before treatment) and 8W (8 weeks after surgery after two weeks of compound treatment).

The test system of data set [2] is 5/6 nephrectomized uremic rats. Briefly: Endothelial function (aortic ring relaxation) in 5/6 nephrectomized uremic rats. It is filed as in vivo, Sprague Dawley rats. The settings on record: 5/6 NX rats; for acetylcholine-induced endothelial-dependent aortic relaxation / sodium nitroprusside (SNP)-induced endothelial-independent relaxation: 2-week treatment, aortic rings precontracted with PE. The method, then: The experimental conditions using the 5/6 (subtotal) nephrectomized rats were as described above. Twenty-four hours after the last dose, the animals were sacrificed, and the aorta tissues were harvested for the determination of endothelial function.
Rats were anesthetized with pentobarbital sodium (i.p., 35 mg/kg). Thoracic aortas were excised in a cold modified Krebs solution (see below) and a 3 mm aortic ring was suspended in 10 mL tissue baths under 0.5 grams of resting tension in a modified Krebs solution containing (g/L): NaCl 6.9169, KCl 0.3499, NaHCO3 2.0998, MgSO4 0.2901, KH2 PO4 0.1604, CaCl2 0.2663, glucose 1.9994, EDTA 0.026, equilibrated with 5% CO2-95% 02 (pH 7.4 at 37° C.). Aortas were sensitized by the addition of phenylephrine (PE, 3 μM) with 10 min washouts between intervals. Aortas were precontracted with PE (3 μM), and the endothelium-dependent vasodilator acetylcholine (ACh) was added in half-log increments (10^−9 mol/L-10^−4.5 mol/L) at 3-5 min intervals, allowing time for the effect of ACh to plateau. After a 60 min washout, aortas were precontracted with PE (3 μM) and subsequently treated with endothelial-independent vasodilator sodium nitroprusside (SNP; 10^−9 mol/L-10^−6 mol/L) at 3-5 min intervals, allowing time for the effect to plateau. Data were recorded with the BL-420F Data Acquisition & Analysis System.
ACh and SNP-induced relaxation were calculated as the % relaxation of the PE-induced precontraction. Differences in vascular function were determined using a two-way ANOVA, followed by a Bonferonni post-hoc test. […] SNP serves as a source of nitric oxide and induces relaxation via an endothelial-independent pathway.

[3] abbreviates: 24 h, Table 4 summary, some values average of 2 or more determinations, read-out: EC50 for CYP24A1 induction.
Where [4] appears, read: i.p. 3 times/week for two weeks.
Where [5] appears, read: 5/6 NX uremic rats, i.p. 3 times/week for two weeks.

For `C=C1[C@H](O)CC(=C/C=C2\CCCC3(C)C2CCC3[C@@H](C)OCCC(O)(CC)CC)C[C@H]1O` (stereo partly drawn) [Vida-11, (1R,3R)-5-((E)-2-((1S,3αS,7αS)-1-((R)-1-(3-ethyl-3-hydroxypentyloxy)ethyl)-7α-methyldihydro-1H-inden-4(2H, 5H, 6H, 7H, 7αH)-ylidene)ethylidene)-2-methylenecyclohexane-1,3-diol], the “dose at which compound starts to raise serum Ca” value with normal mice is 0.1 µg/kg. For the same molecule, in the data set on CYP24A1 (setting [3]), the EC50 is 0.39 nM. For the same molecule, in data set [1] (setting [4]), the “effect on BUN” value is recorded as “no dose-dependent effect”, the “effect on serum PTH” value was “significantly suppress PTH levels in a dose-dependent manner”, the “effect on serum calcium” value is recorded as “elevated serum Ca in a dose-dependent manner” and the “effect on serum creatinine” value was “no dose-dependent effect”. In addition, the “effect on serum phosphorus” value in data set [1] (setting [4]) was “did not show a significant effect”. Also, in data set [1] (setting [5]), the “dose at which compound raises serum Ca” value stood at 0.01 µg/kg and the “dose at which compound starts to suppress serum PTH” value (“dose … to suppress serum PTH” for short) was determined as 0.01 µg/kg. Besides, in data set [2], the “acetylcholine-induced endothelial-dependent aortic relaxation” value was “improves; also recorded: dose-dependent improvement; also recorded: potent in improving endothelial function” and the “sodium nitroprusside (SNP)-induced endothelial-independent relaxation” value (shortened to “sodium nitroprusside”) is listed as “no significant effect”.

On to `C=C1[C@H](O)CC(=C/C=C2\CCCC3(C)C2CCC3[C@@H](C)OC[C@H](C)C(C)(C)O)C[C@H]1O` (stereo partly drawn) [Vida-5, (1R,3R)-5-((E)-2-((3αS,7αS)-1-((R)-1-((S)-3-hydroxy-2,3-dimethylbutoxy)ethyl)-7α-methyldihydro-1H-inden-4(2H,5H,6H, 7H, 7αH)-ylidene)ethylidene)-2-methylenecyclohexane-1,3-diol], for which, in the data set with normal mice, the “dose at which compound starts to raise serum Ca” value is 1 µg/kg. In the data set on normal mice (p.o. gavage once daily for 5 days, FIG. 3A), the “dose at which compound starts to raise serum calcium” value is 5 µg/kg. Moreover, the “dose at which compound starts to suppress PTH” value in the data set with normal mice (p.o. gavage once daily for 5 days, FIG. 3B) was 0.05 µg/kg. Besides, in the data set with CYP24A1 (setting [3]), the EC50 was found to be 2 nM. For the same molecule, the EC50 in the data set on CYP24A1 (typical study, FIG. 5A, read-out: EC50 for inducing CYP24A1 expression) came to 2.9 nM. In data set [1] (setting [4]), the “effect on BUN” value is “significantly reduced BUN at the two higher doses (0.16 and 0.64 μg/kg)”; the “effect on serum PTH” value is on record as “significantly suppress PTH levels in a dose-dependent manner”; the “effect on serum calcium” value was “did not have a significant effect”; the “effect on serum creatinine” value was “at the 4 lower doses, had no significant effect on serum creatinine, but the highest dose reduced serum creatinine”. The “effect on serum phosphorus” value in data set [1] (setting [4]) is recorded as “did not have a significant effect”. Moreover, the “dose … to suppress serum PTH” value in data set [1] (setting [5]) amounted to 0.004 µg/kg. In data set [2], the “acetylcholine-induced endothelial-dependent aortic relaxation” value is listed as “improves; also recorded: dose-dependent improvement; also recorded: potent in improving endothelial function” and the “sodium nitroprusside” value is reported as “no significant effect”.

In the case of `CCC(O)(CC)CCO[C@H](C)C1CCC2/C(=C/C=C3C[C@@H](O)C4(CC4)[C@H](O)C3)CCCC21C` (stereo partly drawn) [Vida-10, (4R,8R)-6-((E)-2-((1S,7αS)-1-((R)-1-(3-ethyl-3-hydroxypentyloxy)ethyl)-7α-methyldihydro-1H-inden-4(2H,5H,6H,7H,7αH)-ylidene)ethylidene)spiro[2.5]octane-4,8-diol], in the data set with normal mice, the “dose at which compound starts to raise serum Ca” value was 1 µg/kg. Further, the EC50 with CYP24A1 (setting [3]) stood at 0.39 nM. For the same molecule, in data set [1] (setting [4]), the “effect on BUN” value is “did not significantly affect”, the “effect on serum creatinine” value is “did not significantly affect” and the “effect on serum phosphorus” value is “did not significantly affect”. The “fold less potent in raising serum Ca than Vida-11” value in data set [1] (5/6 NX uremic rats, FIG. 11A) was “at least 64 fold”. In addition, the “fold less potent in suppressing PTH than Vida-11” value in data set [1] (5/6 NX uremic rats, FIG. 11B) was “about 16 fold”. In addition, the “dose … to suppress serum PTH” value in data set [1] (setting [5]) was determined as 0.16 µg/kg. Further, in data set [2], the “acetylcholine-induced endothelial-dependent aortic relaxation” value is on record as “improves endothelial function; also recorded: dose-dependent improvement; also recorded: potent in improving endothelial function” and the “sodium nitroprusside” value is “no significant effect”. Moreover, the acetylcholine-induced endothelial-dependent relaxation entry in data set [2] (treatment with 0.16 and 0.64 μg/kg) is “back to the Sham level”.

One may read the EC50 as the midpoint of the concentration-response curve.
